What all share (experiment): LOEC (log10 uM (lowest observed effect concentration))
Compound in assay [1]: OC(C(F)(F)F)(C(F)(F)F)C(O)(C(F)(F)F)C(F)(F)F [Perfluoropinacol]
As for the experimental part: (§1)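 BioMAP Diversity Plus panel in human primary cell co-cultures, 4 concentrations in duplicate blinded samples. Responses are log10 fold change versus DMSO control, processed with tcpl v2.1.0. A hit is called when responses at any concentration exceed the cutoff (the larger of 3*bmad or log10(1.2)); the lowest observed effect concentration (modl_ga, log10 uM) is reported for hits.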

Compound in assay [2]: OCCCC(F)(F)C(F)(F)C(F)(F)C(F)(F)C(F)(F)C(F)(F)C(F)(F)C(F)(F)F [3-(Perfluorooctyl)propanol]
As for the experimental part:
as §1

Compound in assay [3]: OCCC(F)(F)C(F)(F)C(F)(F)C(F)(F)C(F)(F)C(F)(F)C(F)(F)C(F)(F)F [8:2 Fluorotelomer alcohol]
As for the experimental part:
as §1

Compound in assay [4]: C=CC(=O)OCC(F)(F)C(F)(F)C(F)(F)C(F)(F)COC(=O)C=C [1H,1H,6H,6H-Perfluorohexane-1,6-diol diacrylate]
As to the method:
as §1

Compound in assay [5]: O=C(CC(=O)C(F)(F)C(F)(F)C(F)(F)F)c1cccs1 [(Perfluorobutyryl)-2-thenoylmethane]
As to the method: as §1

Compound in assay [6]: FC(F)(I)C(F)(F)C(F)(F)C(F)(F)C(F)(F)C(F)(F)I [1,6-Diiodoperfluorohexane]
As to the method:
as §1

Compound in assay [7]: OCC(F)(F)C(F)(F)C(F)(F)C(F)(F)C(F)(F)C(F)(F)C(F)(F)C(F)(F)CO [1H,1H,10H,10H-Perfluorodecane-1,10-diol]
As for the experimental part:
as §1

± gives the standard deviation of the averaged measurements.

The values that follow come from the supplement of paper PMC10331698.

With LPS Thrombomodulin down, the “LOEC (log10 uM)” value in assay [1] turned out to be 1.07 ± 0.32.

For the test system BF4T CD90 down, the “LOEC (log10 uM)” value in assay [2] was 1.54 ± 0.34.

For the test system 4H VEGFRII down, the “LOEC (log10 uM)” value in assay [3] turned out to be 1.54 ± 0.34; in assay [4] it was 1.54 ± 0.34; in assay [5], 1.3; in assay [2], 1.78; in assay [1] it was 1.54 ± 0.34.

For 3C MIG down, the “LOEC (log10 uM)” value turned out to be 1.3 in assay [4]; 1.78 in assay [6]; 1.78 in assay [5]; 1.78 in assay [2]; 1.78 in assay [1].

IMphg SRB down: the “LOEC (log10 uM)” value in assay [3] was found to be 1.78; in assay [6], 1.3; in assay [5] it was 1.3; in assay [2], 1.54 ± 0.34; in assay [1], 1.3; in assay [7], 1.78.

As for BE3C EGFR down, the “LOEC (log10 uM)” value in assay [4] was determined as 1.54 ± 0.34; in assay [6], 1.78; in assay [5], 1.31 ± 0.66; in assay [2] it was 1.78; in assay [7] it was 1.78.

On to 4H uPAR down, for which the “LOEC (log10 uM)” value came out at 1.3 in assay [3]; 1.78 in assay [4]; 1.78 in assay [6]; 1.78 in assay [5]; 1.54 ± 0.34 in assay [2]; 1.07 ± 0.32 in assay [1].

In the case of hDFCGF SRB down, the “LOEC (log10 uM)” value in assay [3] is 1.3; in assay [4], 0.845; in assay [6], 0.845; in assay [2], 0.845; in assay [7] it was 1.54 ± 0.34.

For CASM3C IL8 down, the results for the “LOEC (log10 uM)” value in assay [6] and in assay [2] were 1.54 ± 0.34 and 1.78, respectively.

Turning to SAg MCP1 down, the “LOEC (log10 uM)” value in assay [3] stood at 1.78; in assay [4] it was 1.07 ± 0.32; in assay [6] it was 1.78; in assay [5], 1.3; in assay [2], 1.54 ± 0.34; in assay [1] it was 1.54 ± 0.34.

Consider CASM3C uPAR down, for which the “LOEC (log10 uM)” value in assay [3] is 1.78; in assay [4] it was 1.78; in assay [6] it was 1.78; in assay [5], 1.78; in assay [2], 1.78; in assay [1], 1.54 ± 0.34.

Consider BE3C ICAM1 down, for which the “LOEC (log10 uM)” value in assay [3] came out at 1.54 ± 0.34; in assay [4], 1.54 ± 0.34; in assay [6], 1.78; in assay [5], 1.3; in assay [2] it was 1.78; in assay [7] it was 1.78.

Turning to BF4T Keratin818 down, the “LOEC (log10 uM)” value was 1.78 in assay [6], 1.3 in assay [5] and 1.54 ± 0.34 in assay [2].

As to CASM3C MCP1 down, the “LOEC (log10 uM)” value in assay [3] turned out to be 1.78; in assay [4] it was 1.78; in assay [6], 1.3; in assay [5] it was 1.78; in assay [2], 1.54 ± 0.34.

For MyoF Decorin down, the “LOEC (log10 uM)” value came to 1.3 in assay [3]; 1.3 in assay [4]; 1.3 in assay [6]; 1.3 in assay [2]; 1.78 in assay [1].

For SAg IL8 down, the “LOEC (log10 uM)” value in assay [3] was 1.78; in assay [4], 1.3; in assay [6], 1.78; in assay [5] it was 1.07 ± 0.32; in assay [2], 1.78; in assay [1] it was 1.54 ± 0.34.

Turning to 3C TissueFactor down, the “LOEC (log10 uM)” value in assay [3] is 1.54 ± 0.34; in assay [4], 1.07 ± 0.32; in assay [6], 1.78; in assay [5], 1.3; in assay [2], 1.3; in assay [1], 1.3.

Take KF3CT MCP1 up: the “LOEC (log10 uM)” value in assay [1] turned out to be 1.3.

On to KF3CT uPA down, for which the “LOEC (log10 uM)” value in assay [3], in assay [4], in assay [6] and in assay [2] was 1.3 in each case.

For the test system hDFCGF MMP1 down, the “LOEC (log10 uM)” value in assay [3] is 1.3; in assay [4], 1.3; in assay [6], 0.845; in assay [5], 1.3; in assay [2] it was 1.3; in assay [7], 1.78.

Turning to KF3CT TIMP2 down, the “LOEC (log10 uM)” value in assay [3] amounted to 1.3; in assay [4], 1.07 ± 0.32; in assay [6], 1.07 ± 0.32; in assay [2], 1.3; in assay [1] it was 1.78; in assay [7], 1.78.

With LPS MCSF down, the “LOEC (log10 uM)” value is 1.04 ± 1 in assay [3]; 1.3 in assay [4]; 1.78 in assay [6]; 1.3 in assay [2]; 1.3 in assay [1].

In the case of LPS CD40 down, the “LOEC (log10 uM)” value in assay [3] amounted to 1.3; in assay [4], 0.845; in assay [6] it was 1.78; in assay [5] it was 1.54 ± 0.34; in assay [2], 1.3; in assay [1], 1.3.
